Measured values as given in the supplement of paper PMC10307832.

Columns and labels:
Experiment in all cases: relative viability (nuclei count vs DMSO), 5 days (fraction); higher = more cells survive
YM155 + Alpelisib = compound: COCC[n+]1c2c(n(Cc3cnccn3)c1C)C(=O)c1ccccc1C2=O [YM155] + Cc1nc(NC(=O)N2CCC[C@H]2C(N)=O)sc1-c1ccnc(C(C)(C)C(F)(F)F)c1 [Alpelisib] (partner 2 µM)
Procedure, shortened: (§1)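 For relative viability, nuclei counts in treated wells were divided by those in vehicle wells. Lung cancer cell lines had been pin-tool dosed in 1536-well plates the day after seeding and cultured for 5 days, then fixed and stained in one step (final 0.05% Triton X-100, 1% formaldehyde, 1 ug/ml Hoechst) and imaged at 4×. Doses were one drug alone or a fixed anchor-drug dose plus five library-drug doses (not always all listed) in √10 steps, and values are duplicate-plate medians.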

YM155 + Lapatinib = compound: COCC[n+]1c2c(n(Cc3cnccn3)c1C)C(=O)c1ccccc1C2=O [YM155] + CS(=O)(=O)CCNCc1ccc(-c2ccc3ncnc(Nc4ccc(OCc5cccc(F)c5)c(Cl)c4)c3c2)o1 [Lapatinib] (partner 2 µM)
Procedure, shortened: as §1

Quizartinib + Lapatinib = compound: CC(C)(C)c1cc(NC(=O)Nc2ccc(-c3cn4c(n3)sc3cc(OCCN5CCOCC5)ccc34)cc2)no1 [Quizartinib] + CS(=O)(=O)CCNCc1ccc(-c2ccc3ncnc(Nc4ccc(OCc5cccc(F)c5)c(Cl)c4)c3c2)o1 [Lapatinib] (partner 2 µM)
Procedure, shortened: as §1

Quizartinib + Pictilisib = compound: CC(C)(C)c1cc(NC(=O)Nc2ccc(-c3cn4c(n3)sc3cc(OCCN5CCOCC5)ccc34)cc2)no1 [Quizartinib] + CS(=O)(=O)N1CCN(Cc2cc3nc(-c4cccc5[nH]ncc45)nc(N4CCOCC4)c3s2)CC1 [Pictilisib] (partner 1 µM)
Procedure, shortened: as §1

Row | Cell Line | relative viability (YM155 + Alpelisib; first compound 0.002 µM) | relative viability (YM155 + Alpelisib; first compound 0.006325 µM) | relative viability (YM155 + Alpelisib; first compound 0.02 µM) | relative viability (YM155 + Alpelisib; first compound 0.06325 µM) | relative viability (YM155 + Lapatinib; first compound 0.002 µM) | relative viability (YM155 + Lapatinib; first compound 0.006325 µM) | relative viability (YM155 + Lapatinib; first compound 0.02 µM) | relative viability (YM155 + Lapatinib; first compound 0.06325 µM) | relative viability (Quizartinib + Lapatinib; first compound 0.001 µM) | relative viability (Quizartinib + Lapatinib; first compound 0.003162 µM) | relative viability (Quizartinib + Lapatinib; first compound 0.01 µM) | relative viability (Quizartinib + Lapatinib; first compound 0.03162 µM) | relative viability (Quizartinib + Lapatinib; first compound 0.1 µM) | relative viability (Quizartinib + Pictilisib; first compound 0.001 µM) | relative viability (Quizartinib + Pictilisib; first compound 0.003162 µM) | relative viability (Quizartinib + Pictilisib; first compound 0.01 µM) | relative viability (Quizartinib + Pictilisib; first compound 0.03162 µM) | relative viability (Quizartinib + Pictilisib; first compound 0.1 µM)
1 | HCC-15 | 0.96 | 0.826 | 0.927 | 0.879 | 0.802 | 0.911 | 0.868 | 0.69 | 0.652 | 0.795 | 0.859 | 0.791 | 0.767 | 0.433 | 0.788 | 0.755 | 0.607 | 0.707
2 | HCC-44 | 0.749 | 0.766 | 0.813 | 0.862 | 0.994 | 0.998 | 1.02 | 1.08 | 0.776 | 1.02 | 0.991 | 1.09 | 0.938 | 0.669 | 0.516 | 0.56 | 0.626 | 0.555
3 | HCC-78 | 0.341 | 0.436 | 0.361 | 0.438 | 0.672 | 0.806 | 0.968 | 0.833 | 0.869 | 0.901 | 0.576 | 0.702 | 0.703 | 0.21 | 0.185 | 0.206 | 0.0784 | 0.216
4 | HCC-366 | 0.365 | 0.428 | 0.375 | 0.496 | 1.07 | 0.986 | 1.01 | 0.625 | 0.931 | 0.992 | 1.06 | 0.897 | 1 | – | 0.138 | 0.103 | 0.137 | 0.138
5 | HCC-827 | 0.982 | 1.04 | 1.06 | 0.993 | 0.169 | 0.198 | 0.177 | 0.191 | 0.196 | 0.22 | 0.19 | 0.164 | 0.214 | 0.93 | 1.01 | 1.14 | 0.983 | 0.908
6 | HOP-62 | 1.14 | 0.921 | 0.633 | 0.775 | 0.831 | 1.02 | 0.973 | 0.961 | 0.745 | 0.957 | 0.993 | 0.978 | 0.888 | 0.377 | 0.7 | 0.692 | 0.831 | 0.835
7 | IA-LM | 0.578 | 0.907 | 0.738 | 0.644 | 0.781 | 0.741 | 0.652 | 0.283 | 0.983 | 0.718 | 0.86 | – | 0.719 | 0.356 | 0.299 | 0.397 | 0.231 | 0.342
8 | LC-2-ad | 0.768 | 0.977 | 1 | 0.392 | 0.997 | 0.92 | 0.946 | 0.907 | 0.791 | 0.883 | 0.724 | 0.839 | 0.607 | 0.398 | 0.516 | 0.351 | 0.323 | 0.276
9 | LCLC-97TM1 | 0.297 | 0.228 | 0.272 | 0.328 | 1.04 | 1.03 | 1 | 0.551 | – | 0.862 | 0.527 | 0.848 | 1.43 | – | 0.144 | 0.223 | 0.148 | 0.218
10 | LCLC-103H | 1 | 0.997 | 0.946 | 1.09 | – | – | – | – | – | – | – | – | – | 0.535 | 0.733 | 0.591 | 0.547 | 0.546
11 | LK-2 | 1.17 | 1.05 | 1.13 | 1.12 | 0.893 | 0.966 | 0.94 | 0.885 | 0.839 | 0.854 | 1 | 0.723 | 0.761 | 0.594 | 0.474 | 0.826 | 0.526 | 0.55
12 | LOU-NH91 | 0.767 | 0.674 | 0.76 | 0.745 | 0.828 | 0.778 | 0.778 | 0.788 | 0.724 | 0.806 | 0.804 | 0.522 | 0.785 | 0.431 | 0.559 | 0.521 | 0.465 | 0.545
13 | LU99A | 0.541 | 0.453 | 0.456 | 0.439 | 0.965 | 0.884 | 0.809 | 0.589 | 0.857 | 0.901 | 0.999 | 1 | 0.968 | 0.312 | 0.317 | 0.327 | 0.309 | 0.291
14 | LXF-289 | 1.02 | 1.04 | 0.967 | 0.939 | 0.891 | 0.892 | 0.905 | 0.713 | 0.788 | 0.838 | 0.932 | 0.923 | 0.892 | 0.71 | 0.748 | 0.801 | 0.763 | 0.777
15 | NCI-H441 | 0.733 | 0.644 | 0.567 | 0.429 | – | – | – | – | – | – | – | – | – | 0.38 | 0.508 | 0.508 | 0.379 | 0.606
16 | NCI-H1650 | – | – | – | – | 0.674 | 0.787 | 0.988 | 0.488 | 0.189 | 0.782 | 0.579 | – | 0.686 | 0.268 | 0.584 | 0.566 | – | 0.547
